Measurements from article PMC4550478, “Metronidazole-triazole conjugates: Activity against Clostridium difficile and parasites” (European Journal of Medicinal Chemistry, 2015).
pEC50: −log10 of the molar value. In brackets after ≈: the same amount, converted by molar mass. Read-outs that look alike come from different tables or passages of the source.

What was measured:
[1] = system: C. difficile NAP1/027 ATCC BAA-1803; test: MIC broth microdilution, C. difficile NAP1/027 ATCC BAA-1803; format: cell-based, Clostridium difficile; conditions: Clostridioides difficile
Protocol: All compounds were tested for activity against a set of anaerobic C. difficile bacteria (630 ATCC BAA-1382, NAP1/027 M7404, NAP1/027 ATCC BAA-1803, VPI10463 ATCC 43255, CD26A54_S and CD26A54_R) and representative ESKAPE pathogens S. aureus (MRSA ATCC 43300), E. coli (ATCC 25922), K. pneumoniae (ATCC 700603), A. baumannii (ATCC 19606) and P. aeruginosa (ATCC 27853) using a standard broth microdilution assay. Selected compounds were tested for activity against H. pylori strains (26695, and clinical isolates MtzS 13/25, MtzR 98/285 and MtzR 13/61) using agar plate dilution, and for antimicrobial activity against […] Gram-positive bacterial strains: Enterococcus faecalis (VanA clinical isolate), Enterococcus faecium (MDR VanA ATCC 51559), Streptococcus pneumoniae (MDR ATCC 700677), S. aureus (MRSA ATCC 43300, MRSA clinical isolate, MRSA/DRSA clinical isolate, GISA NARSA NRS 1, GISA NARSA NRS 17, VRSA NARSA VRS1, VRSA NARSA VRS4 and VRSA NARSA VRS10) using broth microdilution. C. difficile strains were grown at 37 °C in a COY anaerobic chamber (5% H2, 10% CO2, 85% N2). H. pylori strains were grown at 37 °C under a microaerobic atmosphere (5% O2, 10% CO2). All facultative anaerobic bacteria were grown at 37 °C with normal atmospheric oxygen levels. All experiments were performed in duplicate with metronidazole, vancomycin, linezolid or colistin as positive controls for relevant strains (see Table 1). Positive growth control of bacteria and DMSO as well as a negative control of only media were included for every plate. Full assay details are provided in the supplementary information.
C. difficile ATCC BAA-1382, ATCC BAA-1803, ATCC 43255 and M7404 heat shocked spore stocks (10 µL) were transferred into the anaerobic chamber and 10 µL streaked onto pre-reduced (at least 2.5 hr in anaerobic chamber) BHIS agar plates supplemented with 0.1% w/v sodium taurocholate (BHIS(TA)). Plates were incubated for 24 hours prior to assay to give colonies of size 1-3mm diameter with characteristic uneven borders.
The minimum inhibition concentration was determined according to the CLSI Methods with modifications in broth and inoculum for C. difficile according to Babakhani et al.^7,8 Briefly, compounds were prepared to 20X final concentration in 100% water, 60% DMSO and 40% water or 60% DMSO and 40% media. The compounds along with standard antibiotics were serially diluted two-fold across the wells of 96-well non-binding surface plates (Non binding surface, Corning). The plates were placed in the anaerobic chamber overnight to reduce. C. difficile bacteria from BHIS(TA) agar plates were cultured anaerobically in BHIS at 37 °C overnight. A sample of culture was then diluted 40-fold in BHIS broth and incubated at 37 °C for approximately 4.5 hrs. The resultant mid-log phase culture (OD600= 0.5-0.6) was diluted to the final concentration of ~1×10^6 CFU/mL, then 50 µL was added to each well of the compound-containing 96-well plates. This gave final cell concentration of 5×10^5 CFU/mL, final volume 100 µL and 3% maximum DMSO concentration. Compound concentration was typically from 64 to 0.03 µg/mL. An antibiotic standard was included on each 96 well plate as well as a positive growth control (no compound) and sterility control (no bacteria). […] MICs were the lowest concentration showing no visible growth.

[2] = system: C. difficile NAP1/027 CD26A54_R; test: MIC broth microdilution, metronidazole resistant C. difficile CD26A54_R; format: cell-based, Clostridium difficile; conditions: for MIC: Clostridioides difficile
[3] = system: E. histolytica HM1:IMSS trophozoites; test: ATP-bioluminescence growth and survival assay, E. histolytica; format: cell-based, Entamoeba histolytica; conditions: Entamoeba histolytica; MtzS, 48 h, anaerobic, n = 3
Protocol: Compounds were tested for antiparasitic activity against E. histolytica (HM1:1MSS strain) and G. lamblia (WB, BRIS/87/HEPU/713 (713), BRIS/83/HEPU/106 (106) and the metronidazole resistant syngeneic line 713-M3 [[15,16]]) using an ATP-bioluminescence based screen for cell growth and survival [[17,18]]. Assay plates were inoculated with trophozoites (5 × 10^3 parasites/well) and incubated in the GasPak™ EZ Anaerobe Gas Generating Pouch Systems (VWR, West Chester, PA) to maintain anaerobic conditions throughout the incubation period. The assays were performed in triplicate using the CellTiter-Glo Luminescent Cell Viability Assay. Metronidazole was used as a positive control.
Trophozoites of E. histolytica strain HM1:IMSS and G. lamblia strains WB, BRIS/87/HEPU/713 (713),^10 BRIS/83/HEPU/106 (106)^11 and the metronidazole resistant syngenic line 713-M3^10,11 were axenically maintained in TYI-S-33 medium supplemented with penicillin (100 U/ml), streptomycin (100 µg/ml).^12 E. histolytica and G. lamblia trophozoites were counted using a particle counter (Beckman Coulter, Fullerton, CA). All experiments were performed using trophozoites harvested during the logarithmic phase of growth.
A three-fold serial dilution was then performed yielding a concentration range 0.25-625 µM. From this dilution plate, 4 µL were transferred into the 96-well screen plates followed by addition of 96 µL of trophozoites (5,000 parasites) to yield a final 8-point concentration range spanning 0.01- 25 µM. Assay plates were incubated for 48 h at 37 °C in the GasPak^TM EZ Anaerobe Gas Generating Pouch Systems (VWR, West Chester, PA) to maintain anaerobic condition throughout the incubation period. The assays were performed in triplicate using the CellTiter-Glo Luminescent Cell Viability Assay.^13

[4] = ATCC 43255 / ATCC BAA-1803, NAP1/027 (footnote c: ATCC 43255), MtzS, 24 h, median of at least n = 4, read-out: MIC C. difficile NAP1/027 (footnote c)
[5] = ATCCBAA1803, 24 hr incubation, read-out: MIC C. difficile NAP1/027 ATCC BAA-1803 24 hr
[6] = ATCCBAA1803, 48 hr incubation, read-out: MIC C. difficile NAP1/027 ATCC BAA-1803 48 hr
[7] = 24 hr incubation, read-out: MIC C. difficile NAP1/027 CD26A54_R 24 hr
[8] = CD26A54_R, MtzR, 48 h growth, BHIS broth, n = 8, read-out: MIC C. difficile NAP1/027 CD26A54_R 48 h

Cc1ncc([N+](=O)[O-])n1CCn1cc(-c2ccsc2)nn1 [Compound 4n, 1-(2-(2-methyl-5-nitro-1H-imidazol-1-yl)ethyl)-4-(thiophen-3-yl)-1H-1,2,3-triazole]
MIC [1, 4]: 0.5 µg/mL (≈ 1.64 µM) | MIC [1, 5]: 0.5 µg/mL (≈ 1.64 µM) | MIC [1, 6]: 0.5 µg/mL (≈ 1.64 µM) | MIC [2, 7]: 2 µg/mL (≈ 6.57 µM) | MIC [2, 8]: 2 µg/mL (≈ 6.57 µM) | pEC50 [3]: 5.42

Cc1ncc([N+](=O)[O-])n1CCO [Compound 1, metronidazole]
MIC [1, 4]: 0.5 µg/mL (≈ 2.92 µM) | MIC [1, 5]: 0.5 µg/mL (≈ 2.92 µM) | MIC [1, 6]: 0.5 µg/mL (≈ 2.92 µM) | MIC C. difficile NAP1/027 CD26A54_R 24 hr ([2]; 24 hr incubation): 2 µg/mL (≈ 11.7 µM) | MIC [2, 7]: 2 µg/mL (≈ 11.7 µM) | MIC [2, 8]: 4 µg/mL (≈ 23.4 µM) | pEC50 [3]: 5.30

Cc1ncc([N+](=O)[O-])n1CCn1cc(-c2ccc(Cl)c(Cl)c2)nn1 [Compound 4d, 1-(2-(2-methyl-5-nitro-1H-imidazol-1-yl)ethyl)-4-(3,4-dichlorophenyl)-1H-1,2,3-triazole]
MIC [1, 4]: 1 µg/mL (≈ 2.72 µM) | MIC [1, 5]: 1 µg/mL (≈ 2.72 µM) | MIC [1, 6]: 0.5 to 8 µg/mL (≈ 1.36 to 21.8 µM) | MIC [2, 7]: 8 to 16 µg/mL (≈ 21.8 to 43.6 µM) | MIC [2, 8]: 8 to 16 µg/mL (≈ 21.8 to 43.6 µM) | pEC50 [3]: 5.28

Cc1ncc([N+](=O)[O-])n1CCn1cc(-c2ccccc2)nn1 [Compound 4a, 1-(2-(2-methyl-5-nitro-1H-imidazol-1-yl)ethyl)-4-phenyl-1H-1,2,3-triazole]
MIC [1, 4]: 0.5 µg/mL (≈ 1.68 µM) | MIC [1, 5]: 0.5 µg/mL (≈ 1.68 µM) | MIC [1, 6]: 0.5 µg/mL (≈ 1.68 µM) | MIC [2, 7]: 2 µg/mL (≈ 6.7 µM) | MIC [2, 8]: 2 µg/mL (≈ 6.7 µM) | pEC50 [3]: 5.38

Cc1ncc([N+](=O)[O-])n1CCn1cc(-c2ccc(Cl)cc2)nn1 [Compound 4c, 1-(2-(2-methyl-5-nitro-1H-imidazol-1-yl)ethyl)-4-(4-chlorophenyl)-1H-1,2,3-triazole]
MIC [1, 4]: 0.25 µg/mL (≈ 0.751 µM) | MIC [1, 5]: 0.25 µg/mL (≈ 0.751 µM) | MIC [1, 6]: 0.5 µg/mL (≈ 1.5 µM) | MIC [2, 7]: 8 µg/mL (≈ 24 µM) | MIC [2, 8]: 16 µg/mL (≈ 48.1 µM) | pEC50 [3]: 5.44

Cc1ncc([N+](=O)[O-])n1CCn1cc(CCC(=O)O)nn1 [Compound 4r, sodium 1-(2-(2-methyl-5-nitro-1H-imidazol-1-yl)ethyl)-4-(carboxyethyl)-1H-1,2,3-triazole]
MIC [1, 4]: > 64 µg/mL | MIC [1, 5]: > 64 µg/mL | MIC [1, 6]: > 64 µg/mL | MIC [2, 7]: > 64 µg/mL | MIC [2, 8]: > 64 µg/mL | pEC50 [3]: < 4.60

Cc1ncc([N+](=O)[O-])n1CCn1cc(-c2cncnc2)nn1 [Compound 4i, 1-(2-(2-methyl-5-nitro-1H-imidazol-1-yl)ethyl)-4-(5-pyrimidinyl)-1H-1,2,3-triazole]
MIC [1, 4]: 0.5 to 1 µg/mL (≈ 1.67 to 3.33 µM) | MIC [1, 5]: 1 µg/mL (≈ 3.33 µM) | MIC [1, 6]: 1 µg/mL (≈ 3.33 µM) | MIC [2, 7]: 2 µg/mL (≈ 6.66 µM) | MIC [2, 8]: 4 µg/mL (≈ 13.3 µM) | pEC50 [3]: < 4.60
